Reference: ChEMBL document CHEMBL3045539, “Synthesis, DNA affinity, and antimicrobial activity of 4-substituted phenyl-2,2-bichalcophenes and aza-analogues” (Med Chem Res, 2012)
In brackets after ≈: the same amount, converted by molar mass. Activity calls are given as the source filed them. The rule behind the calls is not given here.

System: Bacillus subtilis
Experiment: Antimicrobial activity against Bacillus subtilis after 24 hr by CLSI liquid dilution method
Type: functional
Conditions: not given

| MIC | Structure (SMILES) |
| --- | --- |
| 15 µg/mL (≈ 59.2 µM) | N=C(N)c1ccc(-c2ccc(-c3ccco3)o2)nc1 [6-(2,2'-BIFURAN-5-YL)NICOTINAMIDINE] |
| 5 µg/mL (≈ 21.2 µM) | N#Cc1ccc(-c2ccc(-c3ccco3)o2)nc1 [6-(2,2'-BIFURAN-5-YL)NICOTINONITRILE] |
| 10 µg/mL (≈ 37.3 µM) | N#Cc1ccc(-c2ccc(-c3cccs3)s2)nc1 [6-(2,2'-BITHIOPHEN-5-YL)NICOTINONITRILE] |

System: not listed separately
Experiment: Antioxidant activity assessed as DPPH scavenging activity at 50 ug after 30 min by spectrophotometry
Type: functional
Conditions: not given

| Structure (SMILES) | Activity |
| --- | --- |
| N#Cc1ccc(-c2ccc(-c3cccs3)s2)nc1 [6-(2,2'-BITHIOPHEN-5-YL)NICOTINONITRILE] | 55.4% |

System: Escherichia coli
Experiment: Induction of Escherichia coli AB1157 DNA degradation after 1 hr by agarose gel electrophoresis
Conditions: not given

| Activity | Structure (SMILES) |
| --- | --- |
| Active | N=C(N)c1ccc(-c2ccc(-c3ccco3)o2)nc1 [6-(2,2'-BIFURAN-5-YL)NICOTINAMIDINE] |
| Active | N#Cc1ccc(-c2ccc(-c3ccco3)o2)nc1 [6-(2,2'-BIFURAN-5-YL)NICOTINONITRILE] |
| Active | N#Cc1ccc(-c2ccc(-c3cccs3)s2)nc1 [6-(2,2'-BITHIOPHEN-5-YL)NICOTINONITRILE] |

System: Staphylococcus aureus
Experiment: Antimicrobial activity against Staphylococcus aureus after 24 hr by CLSI liquid dilution method
Type: functional
Conditions: not given

| MIC | Structure (SMILES) |
| --- | --- |
| 15 µg/mL (≈ 59.2 µM) | N=C(N)c1ccc(-c2ccc(-c3ccco3)o2)nc1 [6-(2,2'-BIFURAN-5-YL)NICOTINAMIDINE] |
| 2.5 µg/mL (≈ 10.6 µM) | N#Cc1ccc(-c2ccc(-c3ccco3)o2)nc1 [6-(2,2'-BIFURAN-5-YL)NICOTINONITRILE] |
| 15 µg/mL (≈ 55.9 µM) | N#Cc1ccc(-c2ccc(-c3cccs3)s2)nc1 [6-(2,2'-BITHIOPHEN-5-YL)NICOTINONITRILE] |

System: Bacillus subtilis
Experiment: Antimicrobial activity against Bacillus subtilis at 100 ug after 24 hr by cup diffusion technique
Type: functional
Conditions: read-out: DIZ

| Structure (SMILES) | zone of inhibition at 100 µg/disc |
| --- | --- |
| N=C(N)c1ccc(-c2ccc(-c3ccco3)o2)nc1 [6-(2,2'-BIFURAN-5-YL)NICOTINAMIDINE] | 7 mm |
| N#Cc1ccc(-c2ccc(-c3ccco3)o2)nc1 [6-(2,2'-BIFURAN-5-YL)NICOTINONITRILE] | 16 mm |
| N#Cc1ccc(-c2ccc(-c3cccs3)s2)nc1 [6-(2,2'-BITHIOPHEN-5-YL)NICOTINONITRILE] | 12 mm |

System: Escherichia coli
Experiment: Antimicrobial activity against Escherichia coli at 100 ug after 24 hr by cup diffusion technique
Type: functional
Conditions: read-out: DIZ

| Structure (SMILES) | zone of inhibition at 100 µg/disc |
| --- | --- |
| N=C(N)c1ccc(-c2ccc(-c3ccco3)o2)nc1 [6-(2,2'-BIFURAN-5-YL)NICOTINAMIDINE] | 9 mm |
| N#Cc1ccc(-c2ccc(-c3ccco3)o2)nc1 [6-(2,2'-BIFURAN-5-YL)NICOTINONITRILE] | 14 mm |
| N#Cc1ccc(-c2ccc(-c3cccs3)s2)nc1 [6-(2,2'-BITHIOPHEN-5-YL)NICOTINONITRILE] | 13 mm |

Biological target: Albumin (Bos taurus, UniProt P02769)
Sequence (P02769 whole entry): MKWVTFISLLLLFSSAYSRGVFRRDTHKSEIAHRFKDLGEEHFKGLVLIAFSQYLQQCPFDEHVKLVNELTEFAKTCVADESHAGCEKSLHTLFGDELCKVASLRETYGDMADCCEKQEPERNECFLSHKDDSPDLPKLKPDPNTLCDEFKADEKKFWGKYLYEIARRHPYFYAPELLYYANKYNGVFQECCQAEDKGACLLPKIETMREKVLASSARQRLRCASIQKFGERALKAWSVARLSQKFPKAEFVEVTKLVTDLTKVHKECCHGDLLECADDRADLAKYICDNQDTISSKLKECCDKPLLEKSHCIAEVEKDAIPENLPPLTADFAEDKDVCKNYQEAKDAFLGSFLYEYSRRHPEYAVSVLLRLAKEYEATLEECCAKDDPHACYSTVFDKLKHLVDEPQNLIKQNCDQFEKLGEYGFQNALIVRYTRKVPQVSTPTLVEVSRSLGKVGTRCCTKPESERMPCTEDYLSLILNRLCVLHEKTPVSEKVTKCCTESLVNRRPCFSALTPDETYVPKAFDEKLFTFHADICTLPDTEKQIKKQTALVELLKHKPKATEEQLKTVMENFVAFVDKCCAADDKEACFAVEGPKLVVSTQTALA
Experiment: Induction of Bos taurus (bovine) serum albumin degradation after 1 hr by SDS-PAGE analysis
Conditions: cattle

| Activity | Structure (SMILES) |
| --- | --- |
| Not Active | N=C(N)c1ccc(-c2ccc(-c3ccco3)o2)nc1 [6-(2,2'-BIFURAN-5-YL)NICOTINAMIDINE] |
| Not Active | N#Cc1ccc(-c2ccc(-c3ccco3)o2)nc1 [6-(2,2'-BIFURAN-5-YL)NICOTINONITRILE] |
| Not Active | N#Cc1ccc(-c2ccc(-c3cccs3)s2)nc1 [6-(2,2'-BITHIOPHEN-5-YL)NICOTINONITRILE] |

System: Escherichia coli
Experiment: Antimicrobial activity against Escherichia coli after 24 hr by CLSI liquid dilution method
Type: functional
Conditions: not given

| MIC | Structure (SMILES) |
| --- | --- |
| 15 µg/mL (≈ 59.2 µM) | N=C(N)c1ccc(-c2ccc(-c3ccco3)o2)nc1 [6-(2,2'-BIFURAN-5-YL)NICOTINAMIDINE] |
| 7.5 µg/mL (≈ 31.7 µM) | N#Cc1ccc(-c2ccc(-c3ccco3)o2)nc1 [6-(2,2'-BIFURAN-5-YL)NICOTINONITRILE] |
| 15 µg/mL (≈ 55.9 µM) | N#Cc1ccc(-c2ccc(-c3cccs3)s2)nc1 [6-(2,2'-BITHIOPHEN-5-YL)NICOTINONITRILE] |

System: Saccharomyces cerevisiae
Experiment: Antimicrobial activity against Saccharomyces cerevisiae after 24 hr by CLSI liquid dilution method
Type: functional
Conditions: not given

| MIC | Structure (SMILES) |
| --- | --- |
| 10 µg/mL (≈ 39.5 µM) | N=C(N)c1ccc(-c2ccc(-c3ccco3)o2)nc1 [6-(2,2'-BIFURAN-5-YL)NICOTINAMIDINE] |
| 2 µg/mL (≈ 8.47 µM) | N#Cc1ccc(-c2ccc(-c3ccco3)o2)nc1 [6-(2,2'-BIFURAN-5-YL)NICOTINONITRILE] |
| 2.5 µg/mL (≈ 9.32 µM) | N#Cc1ccc(-c2ccc(-c3cccs3)s2)nc1 [6-(2,2'-BITHIOPHEN-5-YL)NICOTINONITRILE] |

System: Pseudomonas aeruginosa
Experiment: Antimicrobial activity against Pseudomonas aeruginosa after 24 hr by cup diffusion technique
Type: functional
Conditions: not given

| Structure (SMILES) | diameter of the inhibition zone (DIZ) |
| --- | --- |
| N=C(N)c1ccc(-c2ccc(-c3ccco3)o2)nc1 [6-(2,2'-BIFURAN-5-YL)NICOTINAMIDINE] | 7 mm |
| N#Cc1ccc(-c2ccc(-c3ccco3)o2)nc1 [6-(2,2'-BIFURAN-5-YL)NICOTINONITRILE] | 16 mm |
| N#Cc1ccc(-c2ccc(-c3cccs3)s2)nc1 [6-(2,2'-BITHIOPHEN-5-YL)NICOTINONITRILE] | 15 mm |

System: Staphylococcus aureus
Experiment: Antimicrobial activity against Staphylococcus aureus at 100 ug after 24 hr by cup diffusion technique
Type: functional
Conditions: read-out: DIZ

| Structure (SMILES) | zone of inhibition at 100 µg/disc |
| --- | --- |
| N=C(N)c1ccc(-c2ccc(-c3ccco3)o2)nc1 [6-(2,2'-BIFURAN-5-YL)NICOTINAMIDINE] | 6 mm |
| N#Cc1ccc(-c2ccc(-c3ccco3)o2)nc1 [6-(2,2'-BIFURAN-5-YL)NICOTINONITRILE] | 17 mm |
| N#Cc1ccc(-c2ccc(-c3cccs3)s2)nc1 [6-(2,2'-BITHIOPHEN-5-YL)NICOTINONITRILE] | 13 mm |

System: not listed separately
Experiment: Antioxidant activity assessed as SOD-like activity measuring inhibition of superoxide radical production at 50 ug after 30 min by NBT reduction assay
Type: functional
Conditions: not given

| Structure (SMILES) | inhibition |
| --- | --- |
| N=C(N)c1ccc(-c2ccc(-c3ccco3)o2)nc1 [6-(2,2'-BIFURAN-5-YL)NICOTINAMIDINE] | 44.6% |
| N#Cc1ccc(-c2ccc(-c3ccco3)o2)nc1 [6-(2,2'-BIFURAN-5-YL)NICOTINONITRILE] | 34.9% |
| N#Cc1ccc(-c2ccc(-c3cccs3)s2)nc1 [6-(2,2'-BITHIOPHEN-5-YL)NICOTINONITRILE] | 52.9% |

System: Saccharomyces cerevisiae
Experiment: Antimicrobial activity against Saccharomyces cerevisiae at 100 ug after 24 hr by cup diffusion technique
Type: functional
Conditions: read-out: DIZ

| Structure (SMILES) | zone of inhibition at 100 µg/disc |
| --- | --- |
| N=C(N)c1ccc(-c2ccc(-c3ccco3)o2)nc1 [6-(2,2'-BIFURAN-5-YL)NICOTINAMIDINE] | 12 mm |
| N#Cc1ccc(-c2ccc(-c3ccco3)o2)nc1 [6-(2,2'-BIFURAN-5-YL)NICOTINONITRILE] | 20 mm |
| N#Cc1ccc(-c2ccc(-c3cccs3)s2)nc1 [6-(2,2'-BITHIOPHEN-5-YL)NICOTINONITRILE] | 19 mm |

System: Pseudomonas aeruginosa
Experiment: Antimicrobial activity against Pseudomonas aeruginosa after 24 hr by CLSI liquid dilution method
Type: functional
Conditions: not given

| MIC | Structure (SMILES) |
| --- | --- |
| 15 µg/mL (≈ 59.2 µM) | N=C(N)c1ccc(-c2ccc(-c3ccco3)o2)nc1 [6-(2,2'-BIFURAN-5-YL)NICOTINAMIDINE] |
| 5 µg/mL (≈ 21.2 µM) | N#Cc1ccc(-c2ccc(-c3ccco3)o2)nc1 [6-(2,2'-BIFURAN-5-YL)NICOTINONITRILE] |
| 7.5 µg/mL (≈ 27.9 µM) | N#Cc1ccc(-c2ccc(-c3cccs3)s2)nc1 [6-(2,2'-BITHIOPHEN-5-YL)NICOTINONITRILE] |
